Legend:
Assay type in all cases: cell-based
Conditions in all cases: compounds at 50 nM and 500 nM
IKZF3 = target: T1, IKZF3 (Homo sapiens, UniProt Q96SW2+Q9UKT9); assay: Western blot degradation of IKZF3 in hPBMCs (24 h)
T1 construct: The supernatant was aspirated as the extracted total cell protein; endogenous in cells; host or cells: human peripheral blood mononuclear cells (hPBMCs)
Procedure, shortened: (§1)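 Degradation in primary human PBMCs after 24 h compound exposure at 50 and 500 nM. Western blot band intensities, normalised to an internal control protein, expressed as % protein remaining relative to DMSO.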

CK1α = target: T2, CK1α (Homo sapiens, UniProt P48729+Q96SW2); assay: Western blot degradation of CK1α in hPBMCs (24 h)
T2 construct: The supernatant was aspirated as the extracted total cell protein; endogenous in cells; host or cells: human peripheral blood mononuclear cells (hPBMCs)
T2 sequence (P48729 whole entry): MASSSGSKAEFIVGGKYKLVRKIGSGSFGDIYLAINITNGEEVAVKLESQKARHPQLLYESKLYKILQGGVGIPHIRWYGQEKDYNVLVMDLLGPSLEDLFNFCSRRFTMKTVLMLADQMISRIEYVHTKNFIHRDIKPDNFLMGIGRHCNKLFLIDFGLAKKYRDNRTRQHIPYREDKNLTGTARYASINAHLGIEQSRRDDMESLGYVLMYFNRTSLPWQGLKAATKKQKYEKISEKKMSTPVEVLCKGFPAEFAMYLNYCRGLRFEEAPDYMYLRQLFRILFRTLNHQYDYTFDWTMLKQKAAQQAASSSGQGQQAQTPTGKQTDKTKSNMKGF
T2 sequence (Q96SW2 whole entry): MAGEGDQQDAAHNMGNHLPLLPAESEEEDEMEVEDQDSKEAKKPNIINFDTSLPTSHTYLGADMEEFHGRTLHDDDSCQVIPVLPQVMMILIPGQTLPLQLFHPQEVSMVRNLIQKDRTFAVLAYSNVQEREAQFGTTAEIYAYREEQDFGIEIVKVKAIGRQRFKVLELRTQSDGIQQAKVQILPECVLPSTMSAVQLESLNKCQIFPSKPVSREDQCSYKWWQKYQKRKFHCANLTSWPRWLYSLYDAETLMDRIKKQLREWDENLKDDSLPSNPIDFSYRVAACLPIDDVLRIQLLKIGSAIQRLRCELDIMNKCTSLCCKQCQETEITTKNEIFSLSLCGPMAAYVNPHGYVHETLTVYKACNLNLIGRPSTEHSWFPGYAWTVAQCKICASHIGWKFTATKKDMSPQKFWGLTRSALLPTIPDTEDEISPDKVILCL
T2 sequence (Q16531 whole entry partner): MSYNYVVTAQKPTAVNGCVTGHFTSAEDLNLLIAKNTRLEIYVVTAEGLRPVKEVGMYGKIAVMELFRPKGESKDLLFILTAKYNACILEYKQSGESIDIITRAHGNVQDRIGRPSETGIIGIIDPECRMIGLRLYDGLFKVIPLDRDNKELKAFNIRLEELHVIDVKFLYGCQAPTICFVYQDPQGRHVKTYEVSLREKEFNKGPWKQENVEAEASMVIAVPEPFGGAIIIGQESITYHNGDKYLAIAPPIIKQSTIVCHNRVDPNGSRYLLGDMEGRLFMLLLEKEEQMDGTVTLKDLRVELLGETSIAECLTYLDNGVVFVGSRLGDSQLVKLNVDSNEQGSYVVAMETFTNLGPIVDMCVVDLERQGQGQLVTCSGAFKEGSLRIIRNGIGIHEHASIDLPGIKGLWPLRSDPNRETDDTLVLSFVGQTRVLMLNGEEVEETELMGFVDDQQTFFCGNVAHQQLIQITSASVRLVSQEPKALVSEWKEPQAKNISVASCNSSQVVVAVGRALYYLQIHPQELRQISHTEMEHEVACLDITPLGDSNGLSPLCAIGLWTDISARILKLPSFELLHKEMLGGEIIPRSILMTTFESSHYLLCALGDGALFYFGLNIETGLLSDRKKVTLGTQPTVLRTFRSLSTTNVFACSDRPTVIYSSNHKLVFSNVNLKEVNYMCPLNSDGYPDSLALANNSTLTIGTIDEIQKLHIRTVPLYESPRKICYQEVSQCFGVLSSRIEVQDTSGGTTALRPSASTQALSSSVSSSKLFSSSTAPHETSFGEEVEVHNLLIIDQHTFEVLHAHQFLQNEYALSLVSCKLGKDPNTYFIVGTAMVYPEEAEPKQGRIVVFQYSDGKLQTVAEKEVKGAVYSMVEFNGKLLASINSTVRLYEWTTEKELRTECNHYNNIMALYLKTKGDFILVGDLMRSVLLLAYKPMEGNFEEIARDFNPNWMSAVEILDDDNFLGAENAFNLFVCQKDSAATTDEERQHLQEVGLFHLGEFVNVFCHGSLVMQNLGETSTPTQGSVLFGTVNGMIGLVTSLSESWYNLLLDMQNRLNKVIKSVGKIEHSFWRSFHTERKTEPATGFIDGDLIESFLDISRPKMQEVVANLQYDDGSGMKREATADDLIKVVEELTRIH
Procedure, shortened: as §1

WEE1 = target: T3, WEE1 (Homo sapiens, UniProt P30291+Q96SW2); assay: Western blot degradation of WEE1 in hPBMCs (24 h)
T3 construct: The supernatant was aspirated as the extracted total cell protein; endogenous in cells; host or cells: human peripheral blood mononuclear cells (hPBMCs)
T3 sequence (P30291 whole entry): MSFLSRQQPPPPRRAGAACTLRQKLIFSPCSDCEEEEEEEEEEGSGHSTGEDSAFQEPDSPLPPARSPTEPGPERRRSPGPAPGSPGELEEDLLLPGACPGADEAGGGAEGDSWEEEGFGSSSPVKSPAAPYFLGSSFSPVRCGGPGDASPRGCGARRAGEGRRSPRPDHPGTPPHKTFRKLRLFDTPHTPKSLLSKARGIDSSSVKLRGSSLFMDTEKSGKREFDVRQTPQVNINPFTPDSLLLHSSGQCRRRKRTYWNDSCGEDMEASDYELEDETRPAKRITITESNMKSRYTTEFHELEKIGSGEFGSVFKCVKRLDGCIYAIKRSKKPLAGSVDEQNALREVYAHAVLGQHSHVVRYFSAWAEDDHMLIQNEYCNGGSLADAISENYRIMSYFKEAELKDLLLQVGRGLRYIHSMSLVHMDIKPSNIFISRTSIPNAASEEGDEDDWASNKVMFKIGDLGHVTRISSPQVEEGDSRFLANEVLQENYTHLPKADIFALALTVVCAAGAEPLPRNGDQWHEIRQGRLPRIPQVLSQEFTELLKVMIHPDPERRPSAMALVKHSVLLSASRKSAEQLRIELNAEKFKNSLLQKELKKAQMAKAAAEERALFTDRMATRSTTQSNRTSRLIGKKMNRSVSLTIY
T3 sequence (Q96SW2 whole entry): as the sequence (Q96SW2 whole entry) above
T3 sequence (Q16531 whole entry partner): as the sequence (Q16531 whole entry partner) above
Procedure, shortened: as §1

IKZF2 = target: T4, IKZF2 (Homo sapiens, UniProt Q96SW2+Q9UKS7); assay: Western blot degradation of IKZF2 in hPBMCs (24 h)
T4 construct: The supernatant was aspirated as the extracted total cell protein; endogenous in cells; host or cells: human peripheral blood mononuclear cells (hPBMCs)
Procedure, shortened: as §1

IKZF1 = target: T5, IKZF1 (Homo sapiens, UniProt Q13422+Q96SW2); assay: Western blot degradation of IKZF1 in hPBMCs (24 h)
T5 construct: The supernatant was aspirated as the extracted total cell protein; endogenous in cells; host or cells: human peripheral blood mononuclear cells (hPBMCs)
T5 sequence (Q13422 whole entry): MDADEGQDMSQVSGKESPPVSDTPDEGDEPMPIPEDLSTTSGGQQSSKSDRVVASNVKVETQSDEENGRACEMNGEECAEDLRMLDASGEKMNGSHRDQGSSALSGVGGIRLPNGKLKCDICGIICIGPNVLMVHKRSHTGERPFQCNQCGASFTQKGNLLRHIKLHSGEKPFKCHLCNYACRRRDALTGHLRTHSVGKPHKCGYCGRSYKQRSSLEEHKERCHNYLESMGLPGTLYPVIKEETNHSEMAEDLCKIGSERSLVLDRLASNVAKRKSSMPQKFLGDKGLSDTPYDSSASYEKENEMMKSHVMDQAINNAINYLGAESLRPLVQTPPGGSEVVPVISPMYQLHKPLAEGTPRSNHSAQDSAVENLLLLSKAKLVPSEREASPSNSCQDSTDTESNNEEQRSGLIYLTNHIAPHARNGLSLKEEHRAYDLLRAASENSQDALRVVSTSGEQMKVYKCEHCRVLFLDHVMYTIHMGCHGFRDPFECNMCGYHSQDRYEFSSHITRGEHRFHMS
T5 sequence (Q96SW2 whole entry): as the sequence (Q96SW2 whole entry) above
T5 sequence (Q16531 whole entry partner): as the sequence (Q16531 whole entry partner) above
Procedure, shortened: as §1

GSPT1 = target: T6, GSPT1 (Homo sapiens, UniProt P15170+Q96SW2); assay: Western blot degradation of GSPT1 in hPBMCs (24 h)
T6 construct: The supernatant was aspirated as the extracted total cell protein; endogenous in cells; host or cells: human peripheral blood mononuclear cells (hPBMCs)
T6 sequence (P15170 whole entry): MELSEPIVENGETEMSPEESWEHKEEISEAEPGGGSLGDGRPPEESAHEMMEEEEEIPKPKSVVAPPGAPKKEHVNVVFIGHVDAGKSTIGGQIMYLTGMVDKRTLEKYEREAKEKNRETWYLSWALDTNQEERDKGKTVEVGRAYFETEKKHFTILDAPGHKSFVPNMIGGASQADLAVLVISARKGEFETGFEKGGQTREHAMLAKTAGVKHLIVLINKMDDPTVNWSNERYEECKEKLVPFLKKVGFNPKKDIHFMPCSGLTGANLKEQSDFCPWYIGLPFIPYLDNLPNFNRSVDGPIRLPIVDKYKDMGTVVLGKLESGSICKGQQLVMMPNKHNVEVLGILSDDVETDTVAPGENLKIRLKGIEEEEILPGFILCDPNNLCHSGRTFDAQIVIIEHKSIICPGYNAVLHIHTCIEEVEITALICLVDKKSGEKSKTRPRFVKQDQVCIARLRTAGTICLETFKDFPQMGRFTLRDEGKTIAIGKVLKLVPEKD
T6 sequence (Q96SW2 whole entry): as the sequence (Q96SW2 whole entry) above
T6 sequence (Q16531 whole entry partner): as the sequence (Q16531 whole entry partner) above
Procedure, shortened: as §1

T1 sequence (Q9UKT9 whole entry): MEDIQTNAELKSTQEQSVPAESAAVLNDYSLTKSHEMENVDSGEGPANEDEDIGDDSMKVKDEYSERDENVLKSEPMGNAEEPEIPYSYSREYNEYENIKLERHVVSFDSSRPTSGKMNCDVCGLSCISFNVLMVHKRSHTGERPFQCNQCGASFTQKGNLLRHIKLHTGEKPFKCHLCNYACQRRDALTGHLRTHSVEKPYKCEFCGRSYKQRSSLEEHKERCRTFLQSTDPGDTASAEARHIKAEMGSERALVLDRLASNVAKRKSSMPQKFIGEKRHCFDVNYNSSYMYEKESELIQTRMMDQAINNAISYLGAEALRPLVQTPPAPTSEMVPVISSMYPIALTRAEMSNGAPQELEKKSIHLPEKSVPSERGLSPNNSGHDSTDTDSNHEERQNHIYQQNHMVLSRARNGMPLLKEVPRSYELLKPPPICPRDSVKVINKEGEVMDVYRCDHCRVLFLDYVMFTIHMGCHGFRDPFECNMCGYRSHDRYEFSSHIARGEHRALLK
T1 sequence (Q96SW2 whole entry): as the sequence (Q96SW2 whole entry) above
T1 sequence (Q16531 whole entry partner): as the sequence (Q16531 whole entry partner) above

For `O=C1CCN(N2C(=O)c3ccc(CN4CCC(c5c[nH]c6cc(F)ccc56)CC4)cc3C2=O)C(=O)N1` [GT-05259, 2-(2,4-dioxotetrahydropyrimidin-1(2H)-yl)-5-((4-(6-fluoro-1H-indol-3-yl)piperidin-1-yl)methyl)isoindoline-1,3-dione], the “IKZF3 substrate protein remaining %” value (IKZF3) was “B (80%< substrate protein remaining % ≤100%)”, the “CK1α substrate protein remaining %” value (CK1α) was “B (80%< substrate protein remaining % ≤100%)” and the “WEE1 substrate protein remaining %” value (WEE1) was “B (80%< substrate protein remaining % ≤100%)”. For the same molecule, the “IKZF2 substrate protein remaining %” value (IKZF2) was “A (0% ≤ substrate protein remaining % ≤80%)”, the “IKZF1 substrate protein remaining %” value (IKZF1) was “A (0% ≤ substrate protein remaining % ≤80%)” and the “GSPT1 substrate protein remaining %” value (GSPT1) was “A (0% ≤ substrate protein remaining % ≤80%)”.

For `O=C1CCN(N2C(=O)c3ccc(CN4CCC(N5CCc6cc(F)ccc65)CC4)cc3C2=O)C(=O)N1` [GT-05260, 2-(2,4-dioxotetrahydropyrimidin-1(2H)-yl)-5-((4-(5-fluoroindolin-1-yl)piperidin-1-yl)methyl)isoindoline-1,3-dione], the “IKZF3 substrate protein remaining %” value (IKZF3) was “B (80%< substrate protein remaining % ≤100%)”, the “CK1α substrate protein remaining %” value (CK1α) was “B (80%< substrate protein remaining % ≤100%)” and the “WEE1 substrate protein remaining %” value (WEE1) was “A (0% ≤ substrate protein remaining % ≤80%)”. The “IKZF2 substrate protein remaining %” value (IKZF2) was “A (0% ≤ substrate protein remaining % ≤80%)”, the “IKZF1 substrate protein remaining %” value (IKZF1) was “A (0% ≤ substrate protein remaining % ≤80%)” and the “GSPT1 substrate protein remaining %” value (GSPT1) was “B (80%< substrate protein remaining % ≤100%)”.

`O=C1CCN(N2C(=O)c3ccc(CN4CC=C(c5ccnc6cc(F)ccc56)CC4)cc3C2=O)C(=O)N1` [GT-05261, 2-(2,4-dioxotetrahydropyrimidin-1(2H)-yl)-5-((4-(7-fluoroquinolin-4-yl)-3,6-dihydropyridin-1(2H)-yl)methyl)isoindoline-1,3-dione] was tested, and the “IKZF3 substrate protein remaining %” value (IKZF3) was “B (80%< substrate protein remaining % ≤100%)”, the “CK1α substrate protein remaining %” value (CK1α) was “B (80%< substrate protein remaining % ≤100%)” and the “WEE1 substrate protein remaining %” value (WEE1) was “B (80%< substrate protein remaining % ≤100%)”. The “IKZF2 substrate protein remaining %” value (IKZF2) was “A (0% ≤ substrate protein remaining % ≤80%)”, the “IKZF1 substrate protein remaining %” value (IKZF1) was “B (80%< substrate protein remaining % ≤100%)” and the “GSPT1 substrate protein remaining %” value (GSPT1) was “B (80%< substrate protein remaining % ≤100%)”.

For `O=C1CCN(N2C(=O)c3ccc(CN4CCN(C(c5ccccc5)c5ccccc5)CC4)cc3C2=O)C(=O)N1` [GT-05267, 5-((4-benzhydrylpiperazin-1-yl)methyl)-2-(2,4-dioxotetrahydropyrimidin-1(2H)-yl)isoindoline-1,3-dione], the “IKZF3 substrate protein remaining %” value (IKZF3) was “A (0% ≤ substrate protein remaining % ≤80%)”, the “CK1α substrate protein remaining %” value (CK1α) was “A (0% ≤ substrate protein remaining % ≤80%)” and the “WEE1 substrate protein remaining %” value (WEE1) was “B (80%< substrate protein remaining % ≤100%)”. The “IKZF2 substrate protein remaining %” value (IKZF2) was “B (80%< substrate protein remaining % ≤100%)”, the “IKZF1 substrate protein remaining %” value (IKZF1) was “B (80%< substrate protein remaining % ≤100%)” and the “GSPT1 substrate protein remaining %” value (GSPT1) was “A (0% ≤ substrate protein remaining % ≤80%)”.

`O=C1CCN(N2C(=O)c3ccc(CN4CCN(C(c5ccc(F)cc5)c5ccc(F)cc5)CC4)cc3C2=O)C(=O)N1` [GT-05268, 5-((4-(bis(4-fluorophenyl)methyl)piperazin-1-yl)methyl)-2-(2,4-dioxotetrahydropyrimidin-1(2H)-yl)isoindoline-1,3-dione] was tested, and the “IKZF3 substrate protein remaining %” value (IKZF3) was “A (0% ≤ substrate protein remaining % ≤80%)”, the “CK1α substrate protein remaining %” value (CK1α) was “A (0% ≤ substrate protein remaining % ≤80%)” and the “WEE1 substrate protein remaining %” value (WEE1) was “B (80%< substrate protein remaining % ≤100%)”. The “IKZF2 substrate protein remaining %” value (IKZF2) was “B (80%< substrate protein remaining % ≤100%)”, the “IKZF1 substrate protein remaining %” value (IKZF1) was “B (80%< substrate protein remaining % ≤100%)” and the “GSPT1 substrate protein remaining %” value (GSPT1) was “A (0% ≤ substrate protein remaining % ≤80%)”.

For `O=C1CCN(N2C(=O)c3ccc(CN4CCN(C(c5ccc(Cl)cc5)c5ccc(Cl)cc5)CC4)cc3C2=O)C(=O)N1` [GT-05269, 5-((4-(bis(4-chlorophenyl)methyl)piperazin-1-yl)methyl)-2-(2,4-dioxotetrahydropyrimidin-1(2H)-yl)isoindoline-1,3-dione], the “IKZF3 substrate protein remaining %” value (IKZF3) was “B (80%< substrate protein remaining % ≤100%)”, the “CK1α substrate protein remaining %” value (CK1α) was “A (0% ≤ substrate protein remaining % ≤80%)” and the “WEE1 substrate protein remaining %” value (WEE1) was “B (80%< substrate protein remaining % ≤100%)”. For the same molecule, the “IKZF2 substrate protein remaining %” value (IKZF2) was “B (80%< substrate protein remaining % ≤100%)”, the “IKZF1 substrate protein remaining %” value (IKZF1) was “B (80%< substrate protein remaining % ≤100%)” and the “GSPT1 substrate protein remaining %” value (GSPT1) was “A (0% ≤ substrate protein remaining % ≤80%)”.

In the case of `Cc1nc(C2CCN(Cc3ccc4c(c3)C(=O)N(N3CCC(=O)NC3=O)C4=O)CC2)c2ccsc2n1` [GT-05272, 2-(2,4-dioxotetrahydropyrimidin-1(2H)-yl)-5-((4-(2-methylthieno[2,3-d]pyrimidin-4-yl)piperidin-1-yl)methyl)isoindoline-1,3-dione], the “IKZF3 substrate protein remaining %” value (IKZF3) is reported as “B (80%< substrate protein remaining % ≤100%)”, the “CK1α substrate protein remaining %” value (CK1α) is reported as “B (80%< substrate protein remaining % ≤100%)” and the “WEE1 substrate protein remaining %” value (WEE1) is reported as “B (80%< substrate protein remaining % ≤100%)”. For the same molecule, the “IKZF2 substrate protein remaining %” value (IKZF2) was “A (0% ≤ substrate protein remaining % ≤80%)”, the “IKZF1 substrate protein remaining %” value (IKZF1) was “B (80%< substrate protein remaining % ≤100%)” and the “GSPT1 substrate protein remaining %” value (GSPT1) was “B (80%< substrate protein remaining % ≤100%)”.

In the case of `Cc1sc2ncnc(C3=CCN(Cc4ccc5c(c4)C(=O)N(N4CCC(=O)NC4=O)C5=O)CC3)c2c1C` [GT-05273, 5-((4-(5,6-dimethylthieno[2,3-d]pyrimidin-4-yl)-3,6-dihydropyridin-1(2H)-yl)methyl)-2-(2,4-dioxotetrahydropyrimidin-1(2H)-yl)isoindoline-1,3-dione], the “IKZF3 substrate protein remaining %” value (IKZF3) is reported as “B (80%< substrate protein remaining % ≤100%)”, the “CK1α substrate protein remaining %” value (CK1α) is reported as “B (80%< substrate protein remaining % ≤100%)” and the “WEE1 substrate protein remaining %” value (WEE1) is reported as “B (80%< substrate protein remaining % ≤100%)”. For the same molecule, the “IKZF2 substrate protein remaining %” value (IKZF2) was “A (0% ≤ substrate protein remaining % ≤80%)”, the “IKZF1 substrate protein remaining %” value (IKZF1) was “B (80%< substrate protein remaining % ≤100%)” and the “GSPT1 substrate protein remaining %” value (GSPT1) was “B (80%< substrate protein remaining % ≤100%)”.

With `Cn1cc(C2=CCN(Cc3ccc4c(c3)C(=O)N(N3CCC(=O)NC3=O)C4=O)CC2)c2ccc(F)cc21` [GT-05276, 2-(2,4-dioxotetrahydropyrimidin-1(2H)-yl)-5-((4-(6-fluoro-1-methyl-1H-indol-3-yl)-3,6-dihydropyridin-1(2H)-yl)methyl)isoindoline-1,3-dione] the “IKZF3 substrate protein remaining %” value (IKZF3) was “A (0% ≤ substrate protein remaining % ≤80%)”, the “CK1α substrate protein remaining %” value (CK1α) was “B (80%< substrate protein remaining % ≤100%)” and the “WEE1 substrate protein remaining %” value (WEE1) was “B (80%< substrate protein remaining % ≤100%)”. The “IKZF2 substrate protein remaining %” value (IKZF2) was “B (80%< substrate protein remaining % ≤100%)”, the “IKZF1 substrate protein remaining %” value (IKZF1) was “B (80%< substrate protein remaining % ≤100%)” and the “GSPT1 substrate protein remaining %” value (GSPT1) was “A (0% ≤ substrate protein remaining % ≤80%)”.

— patent US20260356819A1, “OXOISOINDOLINYL-SUBSTITUTED […] DERIVATIVE AND USE THEREOF” (GLUETACS THERAPEUTICS (SHANGHAI) CO., LTD., priority 2023, published 2026)
